According to PubChem BioAssay AID330 (DTP/NCI, 2004):
Values joined by “and” are separate entries in the source; they are usually repeats but may differ in a detail not shown here. Equal entries are not always repeated. Toxic doses and inconclusive results are not listed.

System: P388 leukemia ip, CD2F1 mice, survival T/C
Assay: NCI In Vivo Anticancer Drug Screen. Data for tumor model P388 Leukemia (intraperitoneal) in CD2F1 (CDF1) mice
Conditions: endpoint: median survival time, higher = longer survival
Outline: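 Mice carrying the transplanted tumor received test compound or vehicle. Survival was recorded in each group, and the value is the treated-group measurement divided by that of the vehicle-treated control group.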

[1] = dose: 50.0 mg/kg/injection, schedule: Q01DX005 (ip), vehicle: saline with Tween-80
[2] = dose: 100.0 mg/kg/injection, schedule: Q01DX005 (ip), vehicle: saline with Tween-80
[3] = dose: 50.0 mg/kg/injection, schedule: Q01DX005 (ip), vehicle: Klucel (hydroxypropylcellulose) (HPC)
[4] = dose: 100.0 mg/kg/injection, schedule: Q01DX005 (ip), vehicle: Klucel (hydroxypropylcellulose) (HPC)
[5] = dose: 200.0 mg/kg/injection, schedule: Q01DX005 (ip), vehicle: Klucel (hydroxypropylcellulose) (HPC)
[6] = dose: 200.0 mg/kg/injection, schedule: Q01DX005 (ip), vehicle: saline with Tween-80
[7] = dose: 6.25 mg/kg/injection, schedule: Q01DX009 (ip), vehicle: saline with Tween-80
[8] = dose: 12.5 mg/kg/injection, schedule: Q01DX009 (ip), vehicle: saline with Tween-80
[9] = dose: 25.0 mg/kg/injection, schedule: Q01DX009 (ip), vehicle: saline with Tween-80
[10] = dose: 50.0 mg/kg/injection, schedule: Q01DX009 (ip), vehicle: Klucel (hydroxypropylcellulose) (HPC)
[11] = dose: 100.0 mg/kg/injection, schedule: Q01DX009 (ip), vehicle: Klucel (hydroxypropylcellulose) (HPC)
[12] = dose: 200.0 mg/kg/injection, schedule: Q01DX009 (ip), vehicle: Klucel (hydroxypropylcellulose) (HPC)
[13] = dose: 12.5 mg/kg/injection, schedule: Q01DX005 (ip), vehicle: saline
[14] = dose: 25.0 mg/kg/injection, schedule: Q01DX005 (ip), vehicle: saline
[15] = dose: 50.0 mg/kg/injection, schedule: Q01DX005 (ip), vehicle: saline
[16] = dose: 100.0 mg/kg/injection, schedule: Q01DX005 (ip), vehicle: saline

For CC1(C)CC[C@H](C2=CC(=O)c3c(O)ccc(O)c3C2=O)O1, the T/C (dose: 1.25 mg/kg/injection, schedule: Q01DX009 (ip), vehicle: Klucel (hydroxypropylcellulose) (HPC)) was 117 % of control, the T/C (dose: 2.5 mg/kg/injection, schedule: Q01DX009 (ip), vehicle: Klucel (hydroxypropylcellulose) (HPC)) was 115 % of control and the T/C (dose: 5.0 mg/kg/injection, schedule: Q01DX009 (ip), vehicle: Klucel (hydroxypropylcellulose) (HPC)) was 119 % of control. For the same compound, the T/C (dose: 10.0 mg/kg/injection, schedule: Q01DX009 (ip), vehicle: Klucel (hydroxypropylcellulose) (HPC)) was 118 % of control.
With Nc1nc2c(nnn2C2OC(CO)C(O)C2O)c(=O)[nH]1 (stereo not drawn) the T/C [1] was 113 % of control and the T/C [2] was 101 % of control.
O=S(=O)(Nc1ccccc1C(F)(F)F)c1ccc(F)cc1 was tested, and the T/C (dose: 60.0 mg/kg/injection, schedule: Q01DX005 (ip), vehicle: saline with Tween-80) was 99 % of control, the T/C (dose: 120.0 mg/kg/injection, schedule: Q01DX005 (ip), vehicle: saline with Tween-80) was 100 % of control and the T/C (dose: 240.0 mg/kg/injection, schedule: Q01DX005 (ip), vehicle: saline with Tween-80) was 95 % of control.
In the case of CC(=O)Nc1cccc2nc(-c3ccccn3)n(CCc3ccccn3)c12, the T/C (dose: 25.0 mg/kg/injection, schedule: Q01DX005 (ip), vehicle: Klucel (hydroxypropylcellulose) (HPC)) is reported as 105 % of control, the T/C [3] is reported as 102 % of control and the T/C [4] is reported as 103 % of control. For the same compound, the T/C [5] was 109 % of control.
Nc1nc(Cc2ccccc2)c(CCCNc2ccccc2)c(=O)[nH]1 was tested, and the T/C (dose: 0.78 mg/kg/injection, schedule: Q01DX009 (ip), vehicle: saline) was 100 % of control, the T/C (dose: 1.56 mg/kg/injection, schedule: Q01DX009 (ip), vehicle: saline) was 100 % of control and the T/C (dose: 3.13 mg/kg/injection, schedule: Q01DX009 (ip), vehicle: saline) was 102 % of control. For the same compound, the T/C (dose: 6.25 mg/kg/injection, schedule: Q01DX009 (ip), vehicle: saline) was 100 % of control.
With CCOC(=O)C(CC/C=C(\C)CC/C=C/COC(=O)N(C(C)C)C(C)C)P(=O)(OCC)OCC (stereo not drawn) the T/C [1] was 109 % of control, the T/C [2] was 106 % of control and the T/C [6] was 109 % of control.
For Cc1cc2nc(N)[nH]c2cc1C, the T/C [7] was 102 % of control, the T/C [8] was 103 % of control and the T/C [9] was 105 % of control. For the same compound, the T/C (dose: 50.0 mg/kg/injection, schedule: Q01DX009 (ip), vehicle: saline with Tween-80) was 103 % of control.
In the case of CC(Cl)CN(CC(C)Cl)C(=O)Oc1ccc(CC(N)C(=O)O)cc1 (stereo not drawn), the T/C [10] is reported as 91 % of control, the T/C [11] is reported as 89 % of control and the T/C [12] is reported as 97 % of control.
For COc1ccc2nc(C#N)ccc2c1, the T/C [1] was 92 % of control, the T/C [2] was 90 % of control and the T/C [6] was 95 % of control.
For COC1CC(OC2CCC3(C)C(=CCC4C3C(OC(C)=O)C(OC(=O)CC(C)C)C3(C)C(C(C)=O)CCC43O)C2)OC(C)C1OC1CC(OC)C(OC2CC(OC)C(OC3OC(C)C(OC4OC(CO)C(O)C(O)C4O)C(OC)C3O)C(C)O2)C(C)O1 (stereo not drawn), the T/C (dose: 4.13 mg/kg/injection, schedule: Q01DX005 (ip), vehicle: Klucel (hydroxypropylcellulose) (HPC)) was 95 % of control, the T/C (dose: 8.25 mg/kg/injection, schedule: Q01DX005 (ip), vehicle: Klucel (hydroxypropylcellulose) (HPC)) was 101 % of control and the T/C (dose: 16.5 mg/kg/injection, schedule: Q01DX005 (ip), vehicle: Klucel (hydroxypropylcellulose) (HPC)) was 101 % of control.
For C[N+]1(C[Si](C)(C)c2ccccc2)CCCCC1, the T/C [13] was 104 % of control, the T/C [14] was 100 % of control and the T/C [15] was 101 % of control and 105 % of control.
For O=C1NC(=O)N(CCO)C(=O)C1c1ccccc1 (stereo not drawn), the T/C [10] was 101 % of control, the T/C [11] was 101 % of control and the T/C [12] was 94 % of control.
In the case of O=C1CCSC(=S)N1N1CCN(N2C(=O)CCSC2=S)CC1, the T/C (dose: 100.0 mg/kg/injection, schedule: Q01DX001 (ip), vehicle: Klucel (hydroxypropylcellulose) (HPC)) is reported as 102 % of control and the T/C (dose: 200.0 mg/kg/injection, schedule: Q01DX001 (ip), vehicle: Klucel (hydroxypropylcellulose) (HPC)) is reported as 93 % of control.
For Cc1ccc(Cl)cc1NS(=O)(=O)c1ccc(Br)cc1, the T/C (dose: 100.0 mg/kg/injection, schedule: Q04DX003 (ip), vehicle: saline with Tween-80) was 100 % of control, the T/C (dose: 200.0 mg/kg/injection, schedule: Q04DX003 (ip), vehicle: saline with Tween-80) was 100 % of control and the T/C (dose: 400.0 mg/kg/injection, schedule: Q04DX003 (ip), vehicle: saline with Tween-80) was 104 % of control.
For Cc1snnc1-c1ccccc1, the T/C [3] was 105 % of control, the T/C [4] was 105 % of control and the T/C [5] was 96 % of control.
For C=C1C2(CN)CCC(C2)C1(C)C (stereo not drawn), the T/C [7] was 101 % of control, the T/C (dose: 12.5 mg/kg/injection, schedule: Q01DX001 (ip), vehicle: saline with Tween-80) was 96 % of control and the T/C [8] was 98 % of control. For the same compound, the T/C (dose: 25.0 mg/kg/injection, schedule: Q01DX001 (ip), vehicle: saline with Tween-80) was 101 % of control, the T/C [9] was 98 % of control and the T/C (dose: 50.0 mg/kg/injection, schedule: Q01DX001 (ip), vehicle: saline with Tween-80) was 99 % of control.
In the case of O=C(O)CNC(=O)Cc1cccc2ccccc12, the T/C [3] is reported as 102 % of control, the T/C [4] is reported as 98 % of control and the T/C [5] is reported as 95 % of control.
With NC(N)=NOCC[C@@H](N)C(=O)O the T/C [15] was 100 % of control, the T/C [16] was 99 % of control and the T/C (dose: 200.0 mg/kg/injection, schedule: Q01DX005 (ip), vehicle: saline) was 101 % of control. The T/C (dose: 400.0 mg/kg/injection, schedule: Q01DX005 (ip), vehicle: saline) was 91 % of control and the T/C (dose: 1000.0 mg/kg/injection, schedule: Q01DX001 (ip), vehicle: saline) was 95 % of control.
For CC(C)C1(C(=O)NNC(=O)CCCc2ccc(N(CCCl)CCCl)cc2)OC2(O)CCCCCN2C1=O (stereo not drawn), the T/C (dose: 6.25 mg/kg/injection, schedule: Q04DX003 (ip), vehicle: Klucel (hydroxypropylcellulose) (HPC)) was 109 % of control, the T/C (dose: 12.5 mg/kg/injection, schedule: Q04DX003 (ip), vehicle: Klucel (hydroxypropylcellulose) (HPC)) was 121 % of control and the T/C (dose: 100.0 mg/kg/injection, schedule: Q04DX003 (ip), vehicle: Klucel (hydroxypropylcellulose) (HPC)) was 184 % of control.
In the case of COc1cc(NC(=O)OCc2cccnc2)cc(OC)c1OC, the T/C [1] is reported as 98 % of control, the T/C [2] is reported as 98 % of control and the T/C [6] is reported as 93 % of control.
For CC(=O)OCC12CCC(C)=CC1OC1C(N3CCOCC3)C(O)C2(C)C12CO2 (stereo not drawn), the T/C (dose: 0.62 mg/kg/injection, schedule: Q04DX002 (ip), vehicle: water) was 123 % of control, the T/C (dose: 1.25 mg/kg/injection, schedule: Q04DX002 (ip), vehicle: water) was 123 % of control and the T/C (dose: 2.5 mg/kg/injection, schedule: Q04DX002 (ip), vehicle: water) was 123 % of control.
In the case of C=C(C)COc1ccc(C)cc1, the T/C (dose: 25.0 mg/kg/injection, schedule: Q01DX009 (ip), vehicle: other) is reported as 108 % of control, the T/C (dose: 50.0 mg/kg/injection, schedule: Q01DX009 (ip), vehicle: other) is reported as 104 % of control and the T/C (dose: 100.0 mg/kg/injection, schedule: Q01DX009 (ip), vehicle: other) is reported as 110 % of control.
In the case of C1CCN2COCC2C1 (stereo not drawn), the T/C [13] is reported as 108 % of control, the T/C [14] is reported as 117 % of control and the T/C [16] is reported as 120 % of control and 122 % of control.
CC(=O)n1nc(C)c(-c2onc3ccc(Cl)cc23)c1C was tested, and the T/C [10] was 104 % of control, the T/C [11] was 101 % of control and the T/C [12] was 90 % of control.
CC(C)C1CCC2(C)C(CCC3C4(C)CCCC32OC4=O)C1 (stereo not drawn) was tested, and the T/C [3] was 104 % of control, the T/C [4] was 99 % of control and the T/C [5] was 101 % of control.
With O=S(=O)(O)SCCN1CCOCC1 the T/C (dose: 100.0 mg/kg/injection, schedule: Q01DX009 (ip), vehicle: saline) was 90 % of control, the T/C (dose: 200.0 mg/kg/injection, schedule: Q01DX009 (ip), vehicle: saline) was 115 % of control and the T/C (dose: 400.0 mg/kg/injection, schedule: Q01DX009 (ip), vehicle: saline) was 110 % of control.
For O=C(OC1C(O)OC2COC(=O)c3cc(O)c(O)c(O)c3-c3c(cc(O)c(O)c3O)C(=O)OC2C1O)c1cc(O)c(O)c(O)c1 (stereo not drawn), the T/C (dose: 3.75 mg/kg/injection, schedule: Q01DX009 (ip), vehicle: saline with Tween-80) was 97 % of control, the T/C (dose: 7.5 mg/kg/injection, schedule: Q01DX009 (ip), vehicle: saline with Tween-80) was 102 % of control and the T/C (dose: 15.0 mg/kg/injection, schedule: Q01DX009 (ip), vehicle: saline with Tween-80) was 103 % of control.
